According to patent publication US20230286925A1, “PHENYL TRIAZOLE MLL1-WDR5 PROTEIN-PROTEIN INTERACTION INHIBITOR” (HUYABIO International, LLC, priority 2022, published 2023):

Key:
hERG = hERG (Homo sapiens (Human), UniProt Q12809); assay: hERG assay (radioligand membrane binding)
Experimental: Procedure: Compounds were prepared and diluted with DMSO to make 0.2 mM and 0.02 mM. Reference compound was diluted with DMSO to make 8-point 4-fold serial dilution, starting at 0.2 mM. One μl of compounds/high control/low control was transferred to the assay plate according to the plate map. Next, and by following the plate map, 100 μl of membrane stocks was dispensed into the plate followed by adding 100 μl of radio ligand. Plates were then sealed and were incubated at RT for 1 hrs. In the meantime, soak the Unifilter-96 GF/C filter plates with 50 μl of 0.5% BSA per well for at least 0.5 hour at room temperature. When binding assays are completed, filter the reaction mixture through GF/C plates using Perkin Elmer Filtermate Harvester, and then wash each plate for 4 times with cold wash buffer. Next, Dry the filter plates for 1 hour at 50 degrees and seal the bottom of the filter plate wells using Perkin Elmer Unifilter-96 backing seal tape. Next, add 50 μl of Perkin Elmer Microscint 20 cocktail. Seal the top of the filter plate with Perkin Elmer TopSeal-A sealing film. Using Perkin Elmer MicroBeta2 Reader count ^3H trapped on filter. Finally, analyze the data with GraphPad Prism 5. Calculate the “Inhibition [% Control]” using the equation: % Inh=(1−Background subtracted Assay value/Background subtracted HC value)*100.
The compound of the disclosure were tested in several hERG assays.

[1] = molecular target: MLL1-WDR5 protein-protein interaction (Homo sapiens (Human), UniProt P61964); assay: WDR5 TR-FRET assay of inhibition against MLL1-WDR5 protein-protein interaction; assay type: binding; conditions: WDR5 TR-FRET, 5 nM WDR5 protein, 10 nM peptide; read-out: MLL1-WDR5 PPI inhibitory activity
Experimental: WDR5 TR-FRET Assay Procedure: Stock compounds were transferred to the assay plate by Echo Liquid Handler. Reactions were performed in the assay buffer (1×PBS, 300 mM NaCl, 0.5 mM TCEP, 0.1% CHAPS) containing 5 nM WDR5 protein, 10 nM peptide (Ac-ARTEVHLRKS-[Ahx-Ahx] [C]-Alexa Fluor 488-NH2) and 0.25 nM Tb-anti His antibody (Tb-Ab) in 384-well white plate (PerkinElmer) with a final volume of 20 μl. Compounds were incubated with WDR5 protein for 30 min at room temperature. Plates were covered, protected from light and incubated for 60 min at room temperature after adding the peptide and Tb-Ab. EnVision Multimode Plate Reader (PerkinElmer) was used for the TR-FRET assay with excitation wavelength at 340 nm and emission wavelength at 495 and 520 nm. The ratio of the 520/495 wavelengths were used to assess the degree of the FRET signal. IC50 was calculated by fitting the inhibition data using XLfit software to sigmoidal dose-response model.
Biphenyl compound DDO-2084 was reported to be a small molecule inhibitor that can inhibit MLL1-WDR5 protein-protein interaction, reduce MLL1 enzyme catalytic activity, and downregulate the expression of Hox and Meis-1 genes (Eur. J. Med. Chem. 2016, 124, 480-489). DDO-2084 is used as a positive control compound.

MV-411 cells = assay: Anti-proliferative activity against leukemia cells (CellTiterGlo viability, 72 hrs); assay type: cell-based; conditions: MV4-11, MV-411 human acute monocytic leukemia cell, Table 6
Experimental: Procedure: MV-411 or Molm-13 cells were seeded into 384 well plates at 2000 cells/well density in 50 uL according plate map and were allowed to naturally sediment by waiting about 30 min in Clean Bench. Next, plated cells were centrifuged for 1 min at 1000 rpm and the excess cells were transferred into the flasks for further culture. Cells in the assay plates were incubated (at least 4 hrs) at 37° C., 5% CO2 for next process followed by adding the compounds as the plate map indicated. The tests were performed in duplicates with treatment of compounds at 10 pts 3 fold titration in 384 well plates. Taxol was as positive control while DMSO as negative control. To rule out edge effect, the wells on the edge were not seeded and therefore one 384 well plate holds 13 compounds. Cells viability was measured 72 hrs after incubation with compounds and using CellTiterGlo (promega) viability assay according to manufactory's instruction to check the ATP production in each well.
Experiments on anti-proliferative activity against leukemia cells were conducted with some of the compounds of the invention.

Chain of hERG (Q12809 whole entry): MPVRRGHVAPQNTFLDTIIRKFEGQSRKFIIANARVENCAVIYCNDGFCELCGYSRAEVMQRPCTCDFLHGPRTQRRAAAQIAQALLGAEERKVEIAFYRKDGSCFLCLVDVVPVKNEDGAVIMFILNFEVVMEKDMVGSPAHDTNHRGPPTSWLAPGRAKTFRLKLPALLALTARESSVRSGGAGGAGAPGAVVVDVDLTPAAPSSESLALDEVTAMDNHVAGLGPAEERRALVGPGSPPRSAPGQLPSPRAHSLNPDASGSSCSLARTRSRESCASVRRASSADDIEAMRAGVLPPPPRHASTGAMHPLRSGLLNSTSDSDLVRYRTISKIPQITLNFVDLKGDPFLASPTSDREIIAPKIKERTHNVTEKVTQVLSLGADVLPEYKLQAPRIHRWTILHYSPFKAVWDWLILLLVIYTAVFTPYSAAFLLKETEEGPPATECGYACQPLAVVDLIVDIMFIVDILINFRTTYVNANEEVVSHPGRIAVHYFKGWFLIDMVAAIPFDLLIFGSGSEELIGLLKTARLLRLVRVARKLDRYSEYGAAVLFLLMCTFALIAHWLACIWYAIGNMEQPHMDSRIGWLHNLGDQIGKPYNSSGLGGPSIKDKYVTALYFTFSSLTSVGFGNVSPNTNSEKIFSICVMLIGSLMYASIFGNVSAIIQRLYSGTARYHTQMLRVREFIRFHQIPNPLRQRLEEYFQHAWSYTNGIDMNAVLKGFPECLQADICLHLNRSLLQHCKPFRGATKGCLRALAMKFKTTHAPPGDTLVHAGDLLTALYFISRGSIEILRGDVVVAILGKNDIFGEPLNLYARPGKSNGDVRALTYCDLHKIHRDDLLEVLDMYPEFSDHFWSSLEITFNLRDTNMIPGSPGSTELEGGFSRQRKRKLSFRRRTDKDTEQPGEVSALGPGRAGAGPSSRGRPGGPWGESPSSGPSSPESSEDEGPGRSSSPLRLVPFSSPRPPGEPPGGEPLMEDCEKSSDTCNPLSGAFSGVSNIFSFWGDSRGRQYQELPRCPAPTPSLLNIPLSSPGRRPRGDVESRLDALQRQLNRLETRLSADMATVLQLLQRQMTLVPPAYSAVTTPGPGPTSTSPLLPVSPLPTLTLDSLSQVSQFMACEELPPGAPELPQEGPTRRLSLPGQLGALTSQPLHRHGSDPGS

Row | Structure (SMILES) | IC50 (hERG) | Ki (hERG) | IC50 [1] | GI50 (MV-411 cells)
1 | CCN(CC)C(=O)c1cn(-c2cc(NC(=O)c3cc(N)c(F)c(C)c3Cl)c(N3C[C@@H](C)N(C)[C@@H](C)C3)cc2F)nn1 [Compound 29, 1-(5-(5-amino-2-chloro-4-fluoro-3-methylbenzamido)-2-fluoro-4-((3S,5R)-3,4,5-trimethylpiperazin-1-yl)phenyl)-N,N-diethyl-1H-1,2,3-triazole-4-carboxamide] | 3.6 µM | 2.04 µM | – | –
2 | Cc1c(F)c([N+](=O)[O-])cc(C(=O)Nc2cc(-n3cc(C(=O)NCCCN4CCOCC4)nn3)ccc2N2CCN(C)CC2)c1Cl [Example 18, 1-[3-[(2-chloro-4-fluoro-3-methyl-5-nitro-benzoyl)amino]-4-(4-methylpiperazin-1-yl)phenyl]-N-(3-morpholinopropyl)triazole-4-carboxamide] | > 10 µM | – | – | –
3 | CN1CCN(c2ccc(-n3cc(C(=O)NCCCN4CCOCC4)nn3)cc2NC(=O)c2ccc(F)c([N+](=O)[O-])c2)CC1 [Example 19, 1-(3-(4-fluoro-3-nitrobenzamido)-4-(4-methylpiperazin-1-yl)phenyl)-N-(3-morpholinopropyl)-1H-1,2,3-triazole-4-carboxamide] | > 10 µM | – | – | –
4 | CN1CCN(c2ccc(-n3cc(C(=O)NCCCN4CCOCC4)nn3)cc2NC(=O)c2ccc(F)c(C(F)(F)F)c2)CC1 [Example 21, 1-(3-(4-fluoro-3-(trifluoromethyl)benzamido)-4-(4-methylpiperazin-1-yl)phenyl)-N-(3-morpholinopropyl)-1H-1,2,3-triazole-4-carboxamide] | > 10 µM | – | – | –
5 | Cc1c(F)c(N)cc(C(=O)Nc2cc(-n3cc(C(=O)N4CCN(C)CC4)nn3)c(F)cc2N2C[C@@H](C)N(C)[C@@H](C)C2)c1Cl [HYBI_084] | – | – | 0.00472 µM | 3.35 µM
6 | Cc1c(F)c(N)cc(C(=O)Nc2cc(-n3cc(C(=O)NC4CCCCC4)nn3)c(F)cc2N2C[C@@H](C)N(C)[C@@H](C)C2)c1Cl [HYBI_085] | – | – | 0.00386 µM | 2.51 µM
7 | Cc1c(F)c(N)cc(C(=O)Nc2cc(-n3cc(C(=O)NC4CCOCC4)nn3)c(F)cc2N2C[C@@H](C)N(C)[C@@H](C)C2)c1Cl [HYBI_086] | – | – | 0.00399 µM | 19.7 µM
8 | Cc1c(F)c(N)cc(C(=O)Nc2cc(-n3cc(C(=O)NC4CCN(C)CC4)nn3)c(F)cc2N2C[C@@H](C)N(C)[C@@H](C)C2)c1Cl [HYBI_087] | – | – | 0.0026 µM | > 200 µM
9 | Cc1c(F)c(N)cc(C(=O)Nc2cc(-n3cc(C(=O)NCCCN4CCN(C)CC4)nn3)c(F)cc2N2C[C@@H](C)N(C)[C@@H](C)C2)c1Cl [HYBI_101] | – | – | 0.00365 µM | 10.5 µM
10 | Cc1c(F)c(N)cc(C(=O)Nc2cc(-n3cc(C(=O)NCC4CCCCC4)nn3)c(F)cc2N2C[C@@H](C)N(C)[C@@H](C)C2)c1Cl [HYBI_110] | – | – | 0.003 µM | 25 µM
